US20110224079A1, “SPIROHETEROCYCLIC N-OXYAMIDES AS PESTICIDES” (SYNGENTA CROP PROTECTION LLC, priority 2008, published 2011)

Legend:
[1] = tested on: Myzus persicae (green peach aphid); assay: Example B1: activity against Myzus persicae, sprayed sunflower leaf discs (feeding/residual contact, preventive); details: foliar, 144 h, read-out: activity (mortality)
[2] = tested on: Myzus persicae (green peach aphid); assay: Example B17: activity against Myzus persicae on sprayed pepper plants (feeding/residual contact); format: in vivo; details: 144 h, infested pepper plants sprayed, 6 days
[3] = tested on: Myzus persicae (green peach aphid); assay: Example B2: activity against Myzus persicae, pea seedling roots in test solution (systemic/feeding, curative); details: 144 h, read-out: activity (mortality)

CCOC(=O)OC1=C(c2c(C)cc(-c3ccc(Cl)cc3)cc2C)C(=O)N(OCOC)C12CCN(OC)CC2 [P1.20]
mortality at 400 ppm [1]: > 80%

CCOC(=O)OC1=C(c2c(C)cc(C)cc2C)C(=O)N(OC2CCCCC2)C12CCN(OC)CC2 [P1.30]
mortality at 400 ppm [1]: > 80%

CCOC(=O)OC1=C(c2cc(C)c(Cl)cc2C)C(=O)N(OCOC)C12CCN(OC)CC2 [P1.32]
mortality at 200 ppm [2]: ≥ 80%

CCOC(=O)OC1=C(c2cc(C)c(Cl)cc2C)C(=O)N(OCCOC)C12CCN(OC)CC2 [P1.33]
mortality at 400 ppm [1]: > 80%

CCOC(=O)OC1=C(c2cc(C)c(Cl)cc2C)C(=O)N(OC)C12CCN(OC)CC2 [P1.34]
mortality at 400 ppm [1]: > 80%

CCOC(=O)OC1=C(c2cc(C)c(C)cc2Cl)C(=O)N(OCCOC)C12CCN(OC)CC2 [P1.35]
mortality at 400 ppm [3]: > 80%
mortality at 400 ppm [1]: > 80%

CCOC(=O)OC1=C(c2cc(C)c(C)cc2C)C(=O)N(OCCOC)C12CCN(OC)CC2 [P1.36]
mortality at 400 ppm [1]: > 80%

CCOC(=O)OC1=C(c2c(C)ccc(Cl)c2C)C(=O)N(OC)C12CCN(OC)CC2 [P1.37]
mortality at 200 ppm [2]: ≥ 80%
mortality at 400 ppm [1]: > 80%

CCOC(=O)OC1=C(c2cc(C)c(C)cc2Cl)C(=O)N(OCOC)C12CCN(OC)CC2 [P1.38]
mortality at 200 ppm [2]: ≥ 80%
mortality at 400 ppm [1]: > 80%

CCOC(=O)OC1=C(c2cc(C)c(C)cc2Cl)C(=O)N(OC)C12CCN(OC)CC2 [P1.39]
mortality at 400 ppm [1]: > 80%

CCOC(=O)OC1=C(c2c(Cl)ccc(C)c2F)C(=O)N(OC)C12CCN(OC)CC2 [P1.41]
mortality at 400 ppm [3]: > 80%

CCOC(=O)OC1=C(c2c(Cl)ccc(C)c2F)C(=O)N(OCOC)C12CCN(OC)CC2 [P1.42]
mortality at 400 ppm [3]: > 80%

CCOC(=O)OC1=C(c2c(C)cc(C)c(C)c2C)C(=O)N(OCCOC)C12CCN(OC)CC2 [P1.46]
mortality at 400 ppm [3]: > 80%

CCOC(=O)OC1=C(c2ccc(C)cc2C)C(=O)N(OCOC)C12CCN(OC)CC2 [P1.50]
mortality at 400 ppm [3]: > 80%
mortality at 400 ppm [1]: > 80%

CCOC(=O)OC1=C(c2cc(C)c(C)cc2Br)C(=O)N(OCOC)C12CCN(OC)CC2 [P1.52]
mortality at 400 ppm [3]: > 80%

CCOC(=O)OC1=C(c2cc(C)c(C)cc2C)C(=O)N(OC)C12CCN(OC)CC2 [P1.57]
mortality at 200 ppm [2]: ≥ 80%
mortality at 400 ppm [3]: > 80%
mortality at 400 ppm [1]: > 80%

CCOC(=O)OC1=C(c2c(C)cc(Br)cc2C)C(=O)N(OC2CCCO2)C12CCN(OC)CC2 (centres unmarked) [P1.63]
mortality at 200 ppm [2]: ≥ 80%
mortality at 400 ppm [3]: > 80%
mortality at 400 ppm [1]: > 80%

CCOC(=O)OC1=C(c2cc(C)c(C)cc2Cl)C(=O)N(OC2CCCO2)C12CCN(OC)CC2 (centres unmarked) [P1.64]
mortality at 400 ppm [3]: > 80%

CCOC(=O)OC1=C(c2c(C)ccc(Cl)c2C)C(=O)N(OCCOC)C12CCN(OC)CC2 [P1.65]
mortality at 200 ppm [2]: ≥ 80%
mortality at 400 ppm [3]: > 80%

CCOC(=O)OC1=C(c2c(C)cc(C)cc2Br)C(=O)N(OC)C12CCN(OC)CC2 [P1.66]
mortality at 400 ppm [3]: > 80%
mortality at 400 ppm [1]: > 80%

CCOC(=O)OC1=C(c2c(C)cc(C)cc2Br)C(=O)N(OCCOC)C12CCN(OC)CC2 [P1.67]
mortality at 400 ppm [3]: > 80%
mortality at 400 ppm [1]: > 80%

CCOC(=O)OC1=C(c2c(C)cc(C)cc2Br)C(=O)N(OCOC)C12CCN(OC)CC2 [P1.68]
mortality at 400 ppm [3]: > 80%
mortality at 400 ppm [1]: > 80%

CCOC(=O)OC1=C(c2c(C)cc(C)cc2C)C(=O)N(OC2COC2)C12CCN(OC)CC2 [P1.79]
mortality at 200 ppm [2]: ≥ 80%
mortality at 400 ppm [3]: > 80%

CCOC(=O)OC1=C(c2c(F)ccc(C)c2Cl)C(=O)N(OC2CCCO2)C12CCN(OC)CC2 (centres unmarked) [P1.102]
mortality at 400 ppm [3]: > 80%

CCOC(=O)OC1=C(c2cc(C)c(Cl)cc2C)C(=O)N(OC2CCCO2)C12CCN(OC)CC2 (centres unmarked) [P1.103]
mortality at 400 ppm [1]: > 80%

CCOC(=O)OC1=C(c2c(C)cc(C)cc2C)C(=O)N(OC2CCOC2)C12CCN(OC)CC2 (centres unmarked) [P1.108]
mortality at 400 ppm [3]: > 80%
mortality at 400 ppm [1]: > 80%

CON1CCC2(CC1)C(O)=C(c1cc(C)c(Cl)cc1C)C(=O)N2OC [P2,31]
mortality at 200 ppm [2]: ≥ 80%

COCON1C(=O)C(c2cc(C)c(Cl)cc2C)=C(O)C12CCN(OC)CC2 [P2.27]
mortality at 400 ppm [3]: > 80%

COCCCON1C(=O)C(c2c(C)cc(C)cc2C)=C(O)C12CCN(OC)CC2 [P2.28]
mortality at 400 ppm [3]: > 80%
mortality at 400 ppm [1]: > 80%

COCCON1C(=O)C(c2cc(C)c(Cl)cc2C)=C(O)C12CCN(OC)CC2 [P2.29]
mortality at 200 ppm [2]: ≥ 80%

COCCON1C(=O)C(c2cc(C)c(C)cc2Cl)=C(O)C12CCN(OC)CC2 [P2.32]
mortality at 400 ppm [3]: > 80%

CON1CCC2(CC1)C(O)=C(c1cc(C)c(C)cc1C)C(=O)N2OC [P2.36]
mortality at 200 ppm [2]: ≥ 80%
mortality at 400 ppm [1]: > 80%

COCCON1C(=O)C(c2cc(C)c(C)cc2C)=C(O)C12CCN(OC)CC2 [P2.37]
mortality at 400 ppm [1]: > 80%

COCON1C(=O)C(c2cc(C)c(C)cc2C)=C(O)C12CCN(OC)CC2 [P2.38]
mortality at 200 ppm [2]: ≥ 80%
mortality at 400 ppm [1]: > 80%

COCON1C(=O)C(c2cc(C)c(C)cc2Br)=C(O)C12CCN(OC)CC2 [P2.41]
mortality at 400 ppm [3]: > 80%
mortality at 400 ppm [1]: > 80%

CON1CCC2(CC1)C(O)=C(c1cc(C)c(C)cc1Cl)C(=O)N2OC [P2.43]
mortality at 200 ppm [2]: ≥ 80%

CON1CCC2(CC1)C(O)=C(c1c(Cl)ccc(C)c1F)C(=O)N2OC1CCCO1 (centres unmarked) [P2.44]
mortality at 400 ppm [3]: > 80%

COCON1C(=O)C(c2c(Cl)ccc(C)c2F)=C(O)C12CCN(OC)CC2 [P2.46]
mortality at 400 ppm [3]: > 80%

CON1CCC2(CC1)C(O)=C(c1c(C)cc(C)c(C)c1C)C(=O)N2OC [P2.49]
mortality at 400 ppm [3]: > 80%

COCON1C(=O)C(c2ccc(C)cc2C)=C(O)C12CCN(OC)CC2 [P2.52]
mortality at 400 ppm [3]: > 80%
mortality at 400 ppm [1]: > 80%

COCCON1C(=O)C(c2cc(C)c(C)cc2Br)=C(O)C12CCN(OC)CC2 [P2.53]
mortality at 400 ppm [3]: > 80%

COCCON1C(=O)C(c2c(F)ccc(C)c2Cl)=C(O)C12CCN(OC)CC2 [P2.59]
mortality at 400 ppm [3]: > 80%

CCOCON1C(=O)C(c2ccc(C)cc2C)=C(O)C12CCN(OC)CC2 [P2.61]
mortality at 400 ppm [3]: > 80%
mortality at 400 ppm [1]: > 80%

COCON1C(=O)C(c2c(C)ccc(Cl)c2C)=C(O)C12CCN(OC)CC2 [P2.71]
mortality at 200 ppm [2]: ≥ 80%
mortality at 400 ppm [3]: > 80%

COCON1C(=O)C(c2c(C)cc(C)cc2Br)=C(O)C12CCN(OC)CC2 [P2.72]
mortality at 400 ppm [3]: > 80%
mortality at 400 ppm [1]: > 80%

COCON1C(=O)C(c2cc(Br)c(C)cc2C)=C(O)C12CCN(OC)CC2 [P2.74]
mortality at 400 ppm [1]: > 80%

COCCON1C(=O)C(c2c(C)cc(Br)cc2C)=C(O)C12CCN(OC)CC2 [P2.80]
mortality at 400 ppm [3]: > 80%
mortality at 400 ppm [1]: > 80%

CON1CCC2(CC1)C(O)=C(c1c(C)cc(C)cc1C)C(=O)N2OCC1CCSCC1 [P2.82]
mortality at 200 ppm [2]: ≥ 80%

CON1CCC2(CC1)C(O)=C(c1c(F)ccc(C)c1Cl)C(=O)N2OC1CCCO1 (centres unmarked) [P2.92]
mortality at 400 ppm [3]: > 80%
mortality at 400 ppm [1]: > 80%

CON1CCC2(CC1)C(O)=C(c1cc(C)c(Cl)cc1C)C(=O)N2OC1CCCO1 (centres unmarked) [P2.93]
mortality at 400 ppm [1]: > 80%

CON1CCC(ON2C(=O)C(c3c(C)cc(C)cc3C)=C(O)C23CCN(OC)CC3)CC1 [P2.95]
mortality at 200 ppm [2]: ≥ 80%
mortality at 400 ppm [3]: > 80%

CON1CCC2(CC1)C(O)=C(c1c(C)cc(C)cc1C)C(=O)N2OC1CCOC1 (centres unmarked) [P2.98]
mortality at 400 ppm [3]: > 80%
mortality at 400 ppm [1]: > 80%

CON1CCC2(CC1)C(O)=C(c1c(C)cc(C)cc1C)C(=O)N2OCCSC [P2.99]
mortality at 200 ppm [2]: ≥ 80%
mortality at 400 ppm [3]: > 80%
